Measurements reported in patent US10098830B2, “Oral care compositions” (BASF SE, priority 2014, dated 2018).
Like-named read-outs stand apart in the source and are kept apart here.

Experiments:
[1] = system: S. mutans (ATCC #25175) biofilm; test: Substantivity: Streptococcus mutans biofilm growth after 24 hr on pre-treated hydroxyapatite surfaces; format: cell-based; settings: pre-treated surface
Procedure: Method to evaluate the substantivity of polymers to hydroxyl apatite surfaces and the effects these polymers have on the growth of Streptococcus mutans and Saliva derived biofilms. For S. mutans Biofilms: S. mutans (ATCC #25175) is inoculated into 10 mL BHI and incubated statically at 37° C. overnight. […] Hydroxy apatite coated peg lids are pellicle treated with sterile artificial saliva 200 ul/per well of a 96 well clear plate for 30 minutes at 37° C. aerobic. The peg lids are transferred to a clear 96 well plate containing 200 ul of the designated treatments below in Jordan's with 5% sucrose. […] After 30 mins of treatment the two pegs are transferred to a 96 well plate containing 200 ul of water and it is rinsed for 10 min at 500 rpm. […] After incubation the peg lids are transferred to a rinse plate containing 200 ul of water for 5 minutes and then transferred to white 96 well plate containing 200 ul Bac-titer-Glo, this is shaken for 5 minutes and read for luminescence. Results: Polymers are evaluated using the substantivity for biofilm prevention method indicated above for both S. mutans and multispecies saliva derived biofilms.

S. mutans (ATCC #25175) = test: Inhibition of bacterial acid production (Bromo Cresol Purple broth, OD 588 / OD 427); format: cell-based, Streptococcus mutans
Procedure: Method to observe the acid production of S. mutans in a medium containing a pH indicator and glucose. Observe how xylitol and the example polymers affect acid production. A culture of S. mutans (ATCC #25175) is grown statically overnight in 10 mL liquid broth (BHI) at 37° C. […] The no treatment control has 20 ul water added. To each experimental well 180 of the inoculated BCP broth is added. To the no inoculum control 20 ul water and 20 ul filter sterilized overnight culture broth are added. […] Both wavelengths are measured every hour for several hours but before evaporation became an issue. The plates are shaken for 10 seconds before reading.

[2] = system: multispecies saliva derived biofilm; test: Substantivity: multispecies saliva derived biofilm growth after 24 hr on pre-treated hydroxyl apatite surfaces; format: cell-based, human saliva; settings: for % decrease in biofilm as compared to growth control (negative indicates increased biofilm): saliva biofilm, 24 hr, pre-treated surface
Procedure: Method to evaluate the substantivity of polymers to hydroxyl apatite surfaces and the effects these polymers have on the growth of Streptococcus mutans and Saliva derived biofilms. For Multispecies Saliva Biofilms: Hydroxy apatite (HA) coated surfaces are pellicle treated with pooled human saliva 200 ul/per well of a 96 well clear plate for 30 minutes at 37° C. aerobically. […] The peg lids are transferred to a clear 96 well plate containing 200 ul of the designated treatments below in Jordan's with 5% sucrose. […] After 30 mins of treatment the two pegs are transferred to a 96 well plate containing 200 ul of water and it is rinsed for 10 min at 500 rpm. […] After incubation the peg lids are transferred to a rinse plate containing 200 ul of water for 5 minutes and then transferred to white 96 well plate containing 200 ul Bac-titer-Glo, this is shaken for 5 minutes and read for luminescence.

porcine esterase = test: Enzymatic degradation of xylitol polymer by esterase (pH change); format: in vitro ADME
Procedure: The method for determining enzymatic breakdown of polymer is determined by Sigma Quality Control Test Procedure: Enzymatic Assay of Esterase. This assay however, exchanges Ethyl Butyrate solution with solution of test polymer. pH change is monitored over time as an indicator of esterase activity and polymer degradation.
Degradation of example polymers is conducted using porcine esterase. Esterase activity decreases the pH of the solution. The pH is monitored at the start and end of the assay (90 minutes).

48 hour saliva biofilms = test: Disruption of established 48 hour saliva biofilms; format: cell-based, pooled human saliva; settings: for Disruption of 48 hour saliva biofilms after treatment for 5 minutes: Chelate control: 0.1% Trilon Ca
Procedure: Method to screen combinations of actives, example polymers and chelates to identify potential synergies for biofilm disruption.
Polystyrene Pegs are pellicle treated with fresh pooled human saliva for 30 minutes at 37° C. aerobically. Saliva is inoculated into BHI broth at a final concentration of 10% saliva. 200 ul of inoculated or uninoculated media is added to each well. The pegs are added to the growth media and incubated anaerobically 37° C.
At 24 hr. the pegs are removed and transferred to a fresh plate containing 200 ul of sterile BHI. And incubated anaerobically for another 24 hr at 37 C.
After 48 hr of growth time, pegs containing the biofilms are transferred to a 96 well rinse plate containing 200 ul of or BHI. Following a 5 minute rinse at room temperature, the pegs are transferred to a treatment plate containing combinations of actives, chelate and polymers. This is followed a 5 minute treatment (shaking at 500 rpm). The treated pegs are transferred to a white 96 well plate containing 200 ul Bac-titer-Glo reagent—this is incubated at room temperature for 5 minutes (shaking) and read on a plate reader for luminescence.
Polymers are evaluated using the Biofilm disruption model as described above.
Example polymers (xylitol-EDTA polymer and xylitol-arginine-succinic acid polymer) are combined with example actives (epsilon-polylysine and chlorhexidine) and a chelator (Ca EDTA).

[3] = system: multispecies saliva biofilm; test: Prevention of multispecies saliva biofilm development on hydroxy apatite pegs (Bac-titer-Glo); format: cell-based, pooled human saliva; settings: 2% xylitol
Procedure: Prevention of Biofilm Development Multispecies Saliva Biofilms: Hydroxy apatite (HA) coated surfaces of a 96 peg lid (Biosurface Technologies, Boseman, Mont.) are pellicle treated with pooled human saliva 200 μl/per well of a 96 well clear plate for 30 minutes at 37° C. aerobically. Into each well of the growth plate, clear 96 well plate, 160 μl inoculated Brain Heart Infusion (BHI) broth is added. Test solutions are added to a desired final concentration and water is added to bring the final volume to 200 μl. The hydroxyl apatite coated pegs are added to. […] Polymers are evaluated using the biofilm prevention method indicated above for both S. mutans and multispecies saliva derived biofilm.

S. mutans 25175 biofilm = test: Prevention of Streptococcus mutans biofilm development on hydroxy apatite pegs (Bac-titer-Glo); format: cell-based; settings: 2% xylitol
Procedure: Prevention of Biofilm Development S. mutans Biofilms: S. mutans 25175 is inoculated into 10 mL BHI and incubated statically at 37° C. overnight. […] Hydroxy apatite coated peg lids are pellicle treated with sterile artificial saliva 200 ul/per well of a 96 well clear plate for 30 minutes at 37° C. aerobic. […] Test solutions are added to a desired final concentration and water is added to bring the final volume to 200 ul. […] Polymers are evaluated using the biofilm prevention method indicated above for both S. mutans and multispecies saliva derived biofilm.

With `N=C(N)NCCC[C@H](N)C(=O)O` [L-Arginine] the “% decrease in biofilm as compared to growth control (negative indicates increased biofilm)” value ([1]; % treatment 0.070%) was −40%, the “% decrease in biofilm as compared to growth control (negative indicates increased biofilm)” value ([1]; % treatment 0.140%) was −18% and the “% decrease in biofilm as compared to growth control (negative indicates increased biofilm)” value ([1]; % treatment 0.280%) was −59%. For the same molecule, the “% decrease in biofilm as compared to growth control (negative indicates increased biofilm)” value ([1]; % treatment 0.560%) was −53%, the “% decrease in biofilm as compared to growth control (negative indicates increased biofilm)” value ([1]; % treatment 1.120%) was −29% and the “effect on acid production of S. mutans (change of OD 588 / OD 427, pH), in words” value (S. mutans (ATCC #25175)) was “no acid inhibiting effects”. For the same molecule, the “% decrease in biofilm as compared to growth control (negative indicates increased biofilm)” value ([2]; % treatment 0.070%) was −28%, the “% decrease in biofilm as compared to growth control (negative indicates increased biofilm)” value ([2]; % treatment 0.140%) was −20% and the “% decrease in biofilm as compared to growth control (negative indicates increased biofilm)” value ([2]; % treatment 0.280%) was −24%. For the same molecule, the “% decrease in biofilm as compared to growth control (negative indicates increased biofilm)” value ([2]; % treatment 0.560%) was −22% and the “% decrease in biofilm as compared to growth control (negative indicates increased biofilm)” value ([2]; % treatment 1.120%) was 49%.

For Xylitol-Carboxymethyl Cellulose Polymer, the “End pH” value (porcine esterase) was 7.47, the “Start pH” value (porcine esterase) was 8.37 and the “degradation by esterase, in words” value (porcine esterase) was “degraded by the esterase”.

`O=C([O-])CN(CCN(CC(=O)[O-])CC(=O)[O-])CC(=O)[O-].[Ca+2].[Na+].[Na+]` [Trilon Ca] was tested, and the “Disruption of 48 hour saliva biofilms after treatment for 5 minutes: Chelate control” value (48 hour saliva biofilms; Chlorhexidine / Xylitol-EDTA polymer series) was −1 and the “Disruption of 48 hour saliva biofilms after treatment for 5 minutes: Chelate control” value (48 hour saliva biofilms; e-polylysine / Arginine-Xylitol-Succinic Acid Terpolymer series) was −10.

With `O=C(O)CCC(=O)O` [succinic acid] the “effect on acid production of S. mutans (change of OD 588 / OD 427, pH), in words” value (S. mutans (ATCC #25175)) was “no or little change”.

For `CCCCCCCCCCCCCCCC[n+]1ccccc1` [Cetylpyridinium chloride], the “% decrease in biofilm as compared to growth control (negative indicates increased biofilm)” value ([1]; % treatment 0.070%) was 100% and the “% decrease in biofilm as compared to growth control (negative indicates increased biofilm)” value ([2]; % treatment 0.070%) was 98%.

`[H]/N=C(\N/C(=N/[H])NCCCCCCNC(=N)NC(=N)Nc1ccc(Cl)cc1)Nc1ccc(Cl)cc1` [Chlorhexidine, chlorhexidine] was tested, and the “Disruption of 48 hour saliva biofilms after treatment for 5 minutes: Active control” value (48 hour saliva biofilms; 0.06% Chlorhexidine) was −10^.

With `O=C(O)CN(CCN(CC(=O)O)CC(=O)O)CC(=O)O` [EDTA, ethylenediaminetetraacetic acid] the “% decrease in biofilm as compared to growth control (negative indicates increased biofilm)” value ([1]; % treatment 0.083%) was 13%, the “% decrease in biofilm as compared to growth control (negative indicates increased biofilm)” value ([1]; % treatment 0.165%) was 37% and the “% decrease in biofilm as compared to growth control (negative indicates increased biofilm)” value ([1]; % treatment 0.330%) was 44%. The “% decrease in biofilm as compared to growth control (negative indicates increased biofilm)” value ([1]; % treatment 0.660%) was 46%, the “% decrease in biofilm as compared to growth control (negative indicates increased biofilm)” value ([1]; % treatment 1.320%) was 41% and the “effect on acid production of S. mutans (change of OD 588 / OD 427, pH), in words” value (S. mutans (ATCC #25175)) was “no or little change”. The “substantivity (retention of biofilm prevention activity after rinsing), in words” value ([2]; observations consistent for both S. mutans and saliva biofilms) was “also substantive”, the “% decrease in biofilm as compared to growth control (negative indicates increased biofilm)” value ([2]; % treatment 0.083%) was 17% and the “% decrease in biofilm as compared to growth control (negative indicates increased biofilm)” value ([2]; % treatment 0.165%) was 25%. The “% decrease in biofilm as compared to growth control (negative indicates increased biofilm)” value ([2]; % treatment 0.330%) was 32%, the “% decrease in biofilm as compared to growth control (negative indicates increased biofilm)” value ([2]; % treatment 0.660%) was 60% and the “% decrease in biofilm as compared to growth control (negative indicates increased biofilm)” value ([2]; % treatment 1.320%) was 79%.

`CCOC(C)=O` [Ethyl Acetate] was tested, and the “End pH” value (porcine esterase; 0.2% (positive control), porcine esterase, end of the assay (90 minutes)) was 5.00 and the “Start pH” value (porcine esterase; 0.2% (positive control), porcine esterase, start of assay) was 8.30.

With `O=C(O)CC(O)(CC(=O)O)C(=O)O` [citric acid] the “effect on acid production of S. mutans (change of OD 588 / OD 427, pH), in words” value (S. mutans (ATCC #25175)) was “no or little change”.

`OC[C@@H](O)[C@H](O)[C@@H](O)CO` [Xylitol] was tested, and the “effect on acid production of S. mutans (change of OD 588 / OD 427, pH), in words” value (S. mutans (ATCC #25175)) was “acid inhibition at all concentrations tested”, the “percent reduction from the untreated control” value [3] was 17% and the “percent reduction from the untreated control” value (S. mutans 25175 biofilm) was −1%.
